Reference: paper PMC8596125, “Self‐Stabilized Supramolecular Assemblies Constructed from PEGylated Dendritic Peptide Conjugate for Augmenting Tumor Retention and Therapy” (Advanced Science, 2021)
Where “and” joins values, the source holds several entries; their conditions need not be identical. Equal entries are not always repeated.

Tests used:
[1] = In vivo pharmacokinetics; design: species or system mouse; conditions: healthy BALB/c mice, single i.v. 5 mg Ppa kg-1, plasma fluorescence, two-compartment model, mean ± s.d., n = 7
Procedure: 1.3.13 In vivo pharmacokinetics
Healthy pathogen-free BALB/c mice (5-6 weeks, female) were used to determine the pharmacokinetics of SSAs (n = 7). The mice were intravenously injected with Ppa and SSAs (5 mg Ppa kg-1), respectively. Blood (20 μL) was collected at diﬀerent time […]
Plasma was diluted to 50-fold with DMSO for fluorescent measurements using a BioTek plate reader. The pharmacokinetic parameters were calculated using a two-compartment model by WinNonlin 5.2 software. […]

[2] = system: A549 cells; test: Cytotoxicity, CCK-8 assay, A549; format: cell-based, human
Procedure: The CCK-8 assay was used to examine the photodynamic therapeutic effect of SSAs on cell viability against three cell lines. 4×103 4T1 cells per well were seeded in a 96-well plate, and then incubated overnight. The cells were treated with different concentrations of Ppa and SSAs at an equivalent Ppa dose. After 24 h incubation, the medium was replaced with fresh one, and the wells were irradiated using a 660 nm laser with 1 J cm−2. After 24 h, the spent media was replaced and the cell viability was assessed using the CCK-8 reagent. The absorbance at […] of each well was recorded on a microplate reader. Untreated cells were served as a control. Results were presented as the average cell viability by following the manufacturer’s instruction. IC50 values were calculated by using nonlinear regression in software Graphpad Prism7. The cytotoxicity of SSAs and Ppa with or without laser against A549 cell line was also measured through the same procedure. […]

[3] = system: 4T1 breast tumors; test: In vivo photodynamic therapy, 4T1 breast tumor model; design: species or system mouse; conditions: n = 6; for TGI: BALB/c mice with 4T1 tumors
Procedure: and 14 d post-intravenous injection by a small-animal in vivo fluorescence imaging system (CRi Maestro EX, USA) with excitation at 450 nm and emission at 560 nm.
The mean fluorescence intensity (MFI) was quantitated by CRi Maestro EX 3.0.
Ex vivo fluorescent imaging
After BALB/c mice developed established tumors (100 mm3), Ppa and SSAs (5 mg Ppa kg-1) were intravenously injected into mice via their tail veins (n = 3). The mice were sacrificed at different time points (1 d, 3 d, 5 d, 7 d, 10 d and 14 d) after post-injection, and tumors were excised for ex vivo imaging and semi-quantitative distribution analysis by an in vivo imaging system (IVIS Spectrum In Vivo Imaging System, USA). These tumors were excised for preparing frozen sections. The fixed tumor samples were sectioned into 5 μm-thick slides and incubated with Alex Fluor 594 labeled anti-CD31 antibody (Abcam, UK) and DAPI (Dojindo, Japan). A confocal microscope was used to observe accumulation and retention of Ppa in the […]
1.3.15 In vivo photodynamic therapy
In the 4T1 breast tumor model, when the tumor volume reached about 50 mm3, the mice were divided into 5 groups (n = 6) and injected intravenously with saline, Ppa-1(one treatment), Ppa-2 (two treatments), SSAs-1 (one treatment) and SSAs-2 (two treatments) every four days. The dose per injection was 5 mg Ppa kg-1. After 3 d post-injection, mice were anesthetized with 2% (v/v) isofluorane and tumors were irradiated for 8 min (660 nm, 200 mW cm-2); The mice were monitored daily to identify any signs of toxicity, while the tumor volumetric size and the body weight were measured every 2 d. Tumor volumes were calculated using the following formula: tumor volume = length × width2 × 0.5. […]
For studies with an A549 human non-small cell lung tumor model, nude mice were randomly allocated into three groups (n= 5): saline (control), Ppa, and SSAs when the average tumor volume reached 50 mm3. […] The tumor growth was monitored and the tumor size was measured every 3 d. […]
Untreated cells were set as a control. […] Relative abundance of transcripts was calculated with kallisto. […]

[4] = system: A549 human non-small cell lung tumor; test: In vivo photodynamic therapy, A549 xenograft model; design: species or system mouse; conditions: nude mice with A549 tumors, i.v. 5 mg Ppa kg-1 on day 1, 14, 21, 28, 660 nm 200 mW cm-2 8 min, n = 5
Procedure: and stained by the terminal deoxynucleotidyl transferase dUTP nick end labeling (TUNEL) and CD31 for histology studies.
For studies with an A549 human non-small cell lung tumor model, nude mice were randomly allocated into three groups (n= 5): saline (control), Ppa, and SSAs when the average tumor volume reached 50 mm3. Saline, Ppa, and SSAs (5 mg Ppa kg-1) were injected intravenously on day 1, 14, 21 and 28. At 3 d post injection, the tumors from groups Ppa, and SSAs were irradiated with a 660 nm laser (200 mW cm-2, 8 min). The tumor growth was monitored and the tumor size was measured every 3 d. The mice were sacrificed on day 61 after treatment.
1.3.16 RNA-seq and enriched signaling pathways analysis
4T1 cells (106/culture) were treated by SSAs and free Ppa with or without laser.
Untreated cells were set as a control. Total RNA was extracted (TRIzol Reagent, Thermo Fisher Scientific, USA) and rRNAs were removed by Ribo-zero™ rRNA Removal Kit (Epicentre, CA, USA). Relative abundance of transcripts was calculated with kallisto. The raw RNA-Seq count data were processed by DESeq R packages to obtain differentially expressed genes (DEGs).[4] […]
Enrichment analyses were performed according to the KEGG database. For gene set enrichment analysis (GSEA), all gene sets were analyzed against the curated gene sets […]

AUC (area under the drug concentration) [1]: 2600 ± 110 ng·h/mL | MRT (mean residence time) [1]: 3.64 ± 1.02 h | t1/2 (half-life of the drug) [1]: 4.29 ± 0.47 h and 4.29 h
SMILES: C=Cc1c(C)c2cc3nc(c4c5[nH]c(cc6nc(cc1[nH]2)C(C)=C6CC)c(C)c5C(=O)C4)[C@@H](CCC(=O)O)[C@@H]3C [Ppa, pyropheophorbide a]
Cytotoxicity without laser irradiation [2]: much higher cytotoxicity | Cytotoxicity under laser irradiation ([2]; 660 nm laser): strong cytotoxicity | TGI ([3]; one treatment (group -1), i.v. 5 mg Ppa kg-1, 660 nm 200 mW cm-2 8 min 3 d post-injection): 11.6% | TGI ([3]; two treatments (group -2), i.v. 5 mg Ppa kg-1 per injection, 660 nm 200 mW cm-2 8 min 3 d post-injection): 17.1% | Antitumor effect on tumor growth ([3]; once and twice treatments, 4T1 model): no significant antitumor inhibitory effect | Tumor growth [4]: modest tumor growth suppression
